In US20220273683A1, “BORON-CONTAINING SMALL MOLECULES” (Bill & Melinda Gates Foundation, priority 2016, published 2022):

Legend:
[1] = tested on: Staphylococcus aureus, MRSA (ATCC 33591); test: Antibacterial MIC assay (microbroth dilution, CLSI); assay type: cell-based; conditions: 35° C., 16-20 hours
Excerpt: (§1) All MIC testing of bacteria followed the Clinical and Laboratory Standards Institute (CLSI) guidelines for antimicrobial testing of aerobic bacteria (Methods for Dilution Antimicrobial Susceptibility Tests for Bacteria that Grow Aerobically; Approved Standard—Tenth Edition, M07-A10; Performance Standards for Antimicrobial Susceptibility Testing; Twenty-fifth Informational Supplement, M100-S25).
(§2) Briefly, the microbroth dilution MIC method was used to quantitatively measure the in vitro antibacterial activity of a compound against a given bacterial isolate. The following bacterial strains were evaluated: Staphylococcus aureus, MRSA (ATCC 33591) and Streptococcus pneumoniae (ATCC 49619). Bacteria were grown in cation-adjusted Mueller-Hinton broth, with additions as required per species growth requirements (e.g. 3% lysed horse blood for fastidious organisms such as S. pneumoniae). A direct colony suspension in saline was prepared from colonies on an overnight agar plate to achieve a turbidity equivalent to 0.5 McFarland standard, which was subsequently diluted into the assay plate to achieve 5×10^5 CFU/mL. Assays plates were prepared by 2-fold dilution of compound across the plate and included a positive growth control.

[2] = tested on: Streptococcus pneumoniae (ATCC 49619); test: as above; assay type: cell-based; conditions: 3% lysed horse blood, 35° C., 16-20 hours
Excerpt: as §1, §2

| SMILES | MIC Staphylococcus aureus, MRSA (ATCC 33591) [1] | MIC Streptococcus pneumoniae (ATCC 49619) [2] |
| --- | --- | --- |
| CSC[C@]1(C)C[C@@H](OC(=O)COc2ccc3c(c2F)B(O)OC3)[C@]2(C)[C@H](C)CC[C@]3(CCC(=O)[C@H]32)[C@@H](C)[C@@H]1O [Compound 29, (3aR,4R,5R,7R,8S,9R,9aS,12R)-8-hydroxy-4,7,9,12-tetramethyl-7-((methylthio)methyl)-3-oxodecahydro-4,9a-propanocyclopenta[8]annulen-5-yl2-((7-fluoro-1-hydroxy-1,3-dihydrobenzo[c][1,2]oxaborol-6-yl)oxy)acetate] | A (MIC of ≤0.25 is A) | C (4-32 is C) |
| C[C@@H]1CC[C@@]23CCC(=O)[C@H]2[C@]1(C)[C@H](OC(=O)COc1ccc2c(c1F)B(O)OC2)C[C@@](C)(C[S+](C)[O-])[C@@H](O)[C@@H]3C (stereo partly drawn) [Compound 30, (3aR,4R,5R,7R,8S,9R,9aS,12R)-8-hydroxy-4,7,9,12-tetramethyl-7-((methylsulfinyl)methyl)-3-oxodecahydro-4,9a-propanocyclopenta[8]annulen-5-yl2-((7-fluoro-1-hydroxy-1,3-dihydrobenzo[c][1,2]oxaborol-6-yl)oxy)acetate] | B (0.5-2 is B) | C (4-32 is C) |
| C[C@@H]1CC[C@@]23CCC(=O)[C@H]2[C@]1(C)[C@H](OC(=O)COc1ccc2c(c1F)B(O)OC2)C[C@@](C)(C=O)[C@@H](O)[C@@H]3C [Compound 31, (3aR,4R,5R,7R,8S,9R,9aS,12R)-7-formyl-8-hydroxy-4,7,9,12-tetramethyl-3-oxodecahydro-4,9a-propanocyclopenta[8]annulen-5-yl2-((7-fluoro-1-hydroxy-1,3-dihydrobenzo[c][1,2]oxaborol-6-yl)oxy)acetate] | A (MIC of ≤0.25 is A) | B (0.5-2 is B) |
| CNC[C@]1(C)C[C@@H](OC(=O)COc2ccc3c(c2F)B(O)OC3)[C@]2(C)[C@H](C)CC[C@]3(CCC(=O)[C@H]32)[C@@H](C)[C@@H]1O [Compound 32, (3aR,4R,5R,7S,8S,9R,9aS,12R)-8-hydroxy-4,7,9,12-tetramethyl-7-((methylamino)methyl)-3-oxodecahydro-4,9a-propanocyclopenta[8]annulen-5-yl2-((7-fluoro-1-hydroxy-1,3-dihydrobenzo[c][1,2]oxaborol-6-yl)oxy)acetate] | B (0.5-2 is B) | C (4-32 is C) |
| C[C@@H]1CC[C@@]23CCC(=O)[C@H]2[C@]1(C)[C@H](OC(=O)COc1ccc2c(c1F)B(O)OC2)C[C@@](C)(CN1CCC1)[C@@H](O)[C@@H]3C [Compound 38, (3aR,4R,5R,7S,8S,9R,9aS,12R)-7-(azetidin-1-ylmethyl)-8-hydroxy-4,7,9,12-tetramethyl-3-oxodecahydro-4,9a-propanocyclopenta[8]annulen-5-yl2-((7-fluoro-1-hydroxy-1,3-dihydrobenzo[c][1,2]oxaborol-6-yl)oxy)acetate] | B (0.5-2 is B) | C (4-32 is C) |

Results, then the molecule that gave them:

| MIC Staphylococcus aureus, MRSA (ATCC 33591) [1] | MIC Streptococcus pneumoniae (ATCC 49619) [2] | SMILES |
| --- | --- | --- |
| B (0.5-2 is B) | C (4-32 is C) | C[C@@H]1CC[C@@]23CCC(=O)[C@H]2[C@]1(C)[C@H](OC(=O)COc1ccc2c(c1F)B(O)OC2)C[C@@](C)(CN(C)C)[C@@H](O)[C@@H]3C [Compound 33, (3aR,4R,5R,7S,8S,9R,9aS,12R)-7-((dimethylamino)methyl)-8-hydroxy-4,7,9,12-tetramethyl-3-oxodecahydro-4,9a-propanocyclopenta[8]annulen-5-yl2-((7-fluoro-1-hydroxy-1,3-dihydrobenzo[c][1,2]oxaborol-6-yl)oxy)acetate] |
| C (4-32 is C) | C (4-32 is C) | CCNC[C@]1(C)C[C@@H](OC(=O)COc2ccc3c(c2F)B(O)OC3)[C@]2(C)[C@H](C)CC[C@]3(CCC(=O)[C@H]32)[C@@H](C)[C@@H]1O [Compound 34, (3aR,4R,5R,7S,8S,9R,9aS,12R)-7-((ethylamino)methyl)-8-hydroxy-4,7,9,12-tetramethyl-3-oxodecahydro-4,9a-propanocyclopenta[8]annulen-5-yl2-((7-fluoro-1-hydroxy-1,3-dihydrobenzo[c][1,2]oxaborol-6-yl)oxy)acetate] |
| C (4-32 is C) | C (4-32 is C) | CCCNC[C@]1(C)C[C@@H](OC(=O)COc2ccc3c(c2F)B(O)OC3)[C@]2(C)[C@H](C)CC[C@]3(CCC(=O)[C@H]32)[C@@H](C)[C@@H]1O [Compound 35, (3aR,4R,5R,7S,8S,9R,9aS,12R)-8-hydroxy-4,7,9,12-tetramethyl-3-oxo-7-((propylamino)methyl)decahydro-4,9a-propanocyclopenta[8]annulen-5-yl2-((7-fluoro-1-hydroxy-1,3-dihydrobenzo[c][1,2]oxaborol-6-yl)oxy)acetate] |
| B (0.5-2 is B) | C (4-32 is C) | CCCCNC[C@]1(C)C[C@@H](OC(=O)COc2ccc3c(c2F)B(O)OC3)[C@]2(C)[C@H](C)CC[C@]3(CCC(=O)[C@H]32)[C@@H](C)[C@@H]1O [Compound 36, (3aR,4R,5R,7S,8S,9R,9aS,12R)-7-((butylamino)methyl)-8-hydroxy-4,7,9,12-tetramethyl-3-oxodecahydro-4,9a-propanocyclopenta[8]annulen-5-yl2-((7-fluoro-1-hydroxy-1,3-dihydrobenzo[c][1,2]oxaborol-6-yl)oxy)acetate] |
| B (0.5-2 is B) | C (4-32 is C) | C[C@@H]1CC[C@@]23CCC(=O)[C@H]2[C@]1(C)[C@H](OC(=O)COc1ccc2c(c1F)B(O)OC2)C[C@@](C)(CNC1CC1)[C@@H](O)[C@@H]3C [Compound 37, (3aR,4R,5R,7S,8S,9R,9aS,12R)-7-((cyclopropylamino)methyl)-8-hydroxy-4,7,9,12-tetramethyl-3-oxodecahydro-4,9a-propanocyclopenta[8]annulen-5-yl2-((7-fluoro-1-hydroxy-1,3-dihydrobenzo[c][1,2]oxaborol-6-yl)oxy)acetate] |
| C (4-32 is C) | C (4-32 is C) | C[C@@H]1CC[C@@]23CCC(=O)[C@H]2[C@]1(C)[C@H](OC(=O)COc1ccc2c(c1F)B(O)OC2)C[C@@](C)(CCN1CCC1)[C@@H](O)[C@@H]3C [Compound 39, (3aR,4R,5R,7R,8S,9R,9aS,12R)-7-(2-(azetidin-1-yl)ethyl)-8-hydroxy-4,7,9,12-tetramethyl-3-oxodecahydro-4,9a-propanocyclopenta[8]annulen-5-yl2-((7-fluoro-1-hydroxy-1,3-dihydrobenzo[c][1,2]oxaborol-6-yl)oxy)acetate] |
| C (4-32 is C) | D (≥64 is D) | C[C@@H]1CC[C@@]23CCC(=O)[C@H]2[C@]1(C)[C@H](OC(=O)COc1ccc2c(c1F)B(O)OC2)C[C@@](C)(CCN1CCCCC1)[C@@H](O)[C@@H]3C [Compound 40, (3aR,4R,5R,7R,8S,9R,9aS,12R)-8-hydroxy-4,7,9,12-tetramethyl-3-oxo-7-(2-(piperidin-1-yl)ethyl)decahydro-4,9a-propanocyclopenta[8]annulen-5-yl2-((7-fluoro-1-hydroxy-1,3-dihydrobenzo[c][1,2]oxaborol-6-yl)oxy)acetate] |
